Data from US20110195433A1 (priority 2007, published 2011).
Entries after “also recorded” stand apart in the source; their conditions may differ. Counter-ions that a name gives are not always drawn.

Key:
mouse DOR [1] = target: T1, mouse DOR (Mus musculus, UniProt P32300)
animals = assay: precipitated withdrawal jumping in animals; format: in vivo; settings: compared with naloxone
mouse DOR [2] = target: T1, mouse DOR; assay: basal [35S]GTPγS binding in DOR cell membranes with or without agonist pretreatment; format: biochemical; set-up: expressed in transfected cells; membranes
human KOR = target: T2, human KOR (Homo sapiens, UniProt P41145); assay: biochemical; settings: for Emax: read-out: Emax of decrease of basal GTPγS binding
T2 construct: expressed in transfected cells; membranes

human MOR [3] = target: T3, human MOR (Homo sapiens, UniProt P35372)
human MOR [4] = target: T3, human MOR; format: biochemical; set-up: expressed in transfected cells; membranes

T3 sequence (P35372 whole entry): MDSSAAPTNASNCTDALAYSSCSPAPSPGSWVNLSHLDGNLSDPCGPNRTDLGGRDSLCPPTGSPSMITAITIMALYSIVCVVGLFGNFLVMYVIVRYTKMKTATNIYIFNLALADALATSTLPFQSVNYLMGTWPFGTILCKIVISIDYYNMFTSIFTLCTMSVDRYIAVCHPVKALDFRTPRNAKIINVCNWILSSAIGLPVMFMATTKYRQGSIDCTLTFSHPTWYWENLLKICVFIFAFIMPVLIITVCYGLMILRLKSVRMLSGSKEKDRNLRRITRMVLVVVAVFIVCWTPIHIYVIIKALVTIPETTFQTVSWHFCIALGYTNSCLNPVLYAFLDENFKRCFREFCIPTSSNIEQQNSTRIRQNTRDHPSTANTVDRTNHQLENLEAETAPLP
T1 sequence (P32300 whole entry): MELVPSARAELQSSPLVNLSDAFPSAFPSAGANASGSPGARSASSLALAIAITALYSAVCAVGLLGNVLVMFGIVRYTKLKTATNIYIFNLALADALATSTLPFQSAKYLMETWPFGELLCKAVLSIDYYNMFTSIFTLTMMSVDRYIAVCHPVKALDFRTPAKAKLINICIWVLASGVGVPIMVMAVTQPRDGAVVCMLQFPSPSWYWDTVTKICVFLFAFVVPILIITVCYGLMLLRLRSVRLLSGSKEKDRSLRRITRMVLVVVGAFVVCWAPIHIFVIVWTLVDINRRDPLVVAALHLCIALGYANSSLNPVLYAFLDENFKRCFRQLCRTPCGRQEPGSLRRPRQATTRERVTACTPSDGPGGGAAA
T2 sequence (P41145 whole entry): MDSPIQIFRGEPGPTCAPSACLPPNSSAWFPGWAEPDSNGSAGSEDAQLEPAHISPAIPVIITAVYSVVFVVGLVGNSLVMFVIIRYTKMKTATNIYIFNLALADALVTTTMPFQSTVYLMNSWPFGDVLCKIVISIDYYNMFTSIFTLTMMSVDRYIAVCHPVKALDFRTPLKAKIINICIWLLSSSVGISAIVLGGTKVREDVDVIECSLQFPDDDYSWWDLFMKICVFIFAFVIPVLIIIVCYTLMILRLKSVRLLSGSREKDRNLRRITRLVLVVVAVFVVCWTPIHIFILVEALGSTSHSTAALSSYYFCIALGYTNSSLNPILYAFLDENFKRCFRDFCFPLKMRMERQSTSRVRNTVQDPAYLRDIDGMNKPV

[D-Pen2,D-Pen5]-enkephalin [DPDPE]
change of agonist Emax value after pretreatment (mouse DOR [1]): decreased

Oc1ccc2c3c1O[C@H]1[C@H](O)CC[C@@]4(O)[C@@H](C2)N(CC2CC2)CC[C@]314 [6β-naltrexol]
precipitated withdrawal jumping (animals): less withdrawal jumping than naloxone
antagonistic property against agonist-stimulated [35S]GTPγS binding (mouse DOR [1]; 30 nM DPDPE, DOR membranes): full antagonists
inhibition of the inverse agonist effect of naloxone (mouse DOR [2]; DPDPE-pretreated DOR membranes): inhibited
pharmacological property at DOR (mouse DOR [2]; after DPDPE or morphine pretreatment): neutral antagonist property; also recorded: remained neutral

Oc1ccc2c3c1O[C@H]1c4[nH]c5c(c4C[C@@]4(O)[C@@H](C2)N(CC2CC2)CC[C@]314)C[C@@]1(O)[C@H]2Cc3ccc(O)c4c3[C@@]1(CCN2CC1CC1)[C@H]5O4 [nor-BNI, nor-binaltorphimine]
change of inverse agonist effects after pretreatment (human KOR): increased
pharmacological property at KOR (human KOR): inverse agonists
Emax (human KOR): ~10%

C[C@@H](NC(=O)[C@@H](N)Cc1ccc(O)cc1)C(=O)NCC(=O)N(C)[C@@H](Cc1ccccc1)C(=O)NCCO [DAMGO, [D-Ala2,N-Me-Phe4,Gly5-ol]-enkephalin]
change of agonist Emax value after pretreatment (human MOR [3]): decreased

N,N-diallyl-Tyr-Aib-Aib-Phe-Leu-OH [ICI 174,864]
change of inverse agonist effects after pretreatment (mouse DOR [2]; DPDPE pre-exposure, DOR): decreased
change of inverse agonist Emax after pretreatment (mouse DOR [2]; morphine pretreatment, DOR): without affecting
shift of inverse agonist dose-response curve after pretreatment (mouse DOR [2]; morphine pretreatment, DOR): shifted the dose-response curve for ICI 174,864 to the left

O=C1C(=Cc2ccccc2)C[C@@]2(O)[C@H]3Cc4ccc(O)c5c4[C@@]2(CCN3CC2CC2)[C@H]1O5 [BNTX, 7-benzylidenenaltrexone]
change of inverse agonist effects after pretreatment (human MOR [4]): increased
shift of inverse agonist dose-response curve after pretreatment (human MOR [4]): shifted the dose-response curve of BNTX to the left

N=C(N)Nc1ccc2[nH]c3c(c2c1)CC1(O)C2Cc4ccc(O)c5c4C1(CCN2CC1CC1)C3O5 (stereo not drawn) [GNTI, 5′-guanidinyl-17-(cyclopropylmethyl)-6,7-dehydro-4,5α-epoxy-3,14-dihydroxy-6,7-2′3′-indolomorphinan dihydrochloride]
EC50 of decrease of basal GTPγS binding (human KOR): femtomolar range
change of inverse agonist effects after pretreatment (human KOR): increased
pharmacological property at KOR (human KOR): inverse agonists
Emax (human KOR): ~10%
